The source of these data is ChEMBL document CHEMBL1909046, “DrugMatrix in vitro pharmacology data”.

The IC50 is the concentration that inhibits the measured activity by half. The term Ki denotes the dissociation constant of the complex between target and ligand, obtained from inhibition or displacement.

The target in one data set is Glycine receptor (Rattus norvegicus, UniProt P22771+P24524+P07727+P20781). Format: cell membranes, Wistar, Spinal cord, Membrane.
A further data set deals with Cytochrome P450 2C9 (Homo sapiens, UniProt P11712). Particulars: bti-tn-5b1-4.
Sequence of Cytochrome P450 2C9 (P11712 whole entry): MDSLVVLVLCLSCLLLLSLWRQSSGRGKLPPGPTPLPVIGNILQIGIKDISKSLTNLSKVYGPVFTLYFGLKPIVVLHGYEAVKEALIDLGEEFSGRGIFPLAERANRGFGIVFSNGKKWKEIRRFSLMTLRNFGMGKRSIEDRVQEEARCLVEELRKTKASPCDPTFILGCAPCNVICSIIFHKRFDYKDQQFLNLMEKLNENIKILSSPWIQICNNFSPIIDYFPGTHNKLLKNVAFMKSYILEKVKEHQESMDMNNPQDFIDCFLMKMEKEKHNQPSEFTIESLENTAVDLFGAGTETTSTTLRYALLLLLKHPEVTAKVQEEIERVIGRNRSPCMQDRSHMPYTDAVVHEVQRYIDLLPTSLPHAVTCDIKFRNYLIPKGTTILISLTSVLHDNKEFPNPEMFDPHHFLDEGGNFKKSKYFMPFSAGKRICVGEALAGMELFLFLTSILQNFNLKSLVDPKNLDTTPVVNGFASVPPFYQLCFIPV
For data set [1], the target named is T1, Cysteinyl leukotriene receptor 1 (Homo sapiens, UniProt Q9Y271).
T1 sequence (Q9Y271 whole entry): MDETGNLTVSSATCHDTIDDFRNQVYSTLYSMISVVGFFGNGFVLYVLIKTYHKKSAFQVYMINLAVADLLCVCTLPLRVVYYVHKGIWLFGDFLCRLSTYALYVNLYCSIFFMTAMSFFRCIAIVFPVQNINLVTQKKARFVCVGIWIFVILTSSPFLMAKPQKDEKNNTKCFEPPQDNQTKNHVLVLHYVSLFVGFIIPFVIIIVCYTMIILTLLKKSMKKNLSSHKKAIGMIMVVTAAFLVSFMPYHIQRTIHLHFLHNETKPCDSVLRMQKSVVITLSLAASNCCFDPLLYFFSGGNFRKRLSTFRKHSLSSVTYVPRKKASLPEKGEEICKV
Format: cell membranes, CHO-K1, Membrane. Particulars: cho-k1.

The target in another data set is T2, Estrogen receptor (Homo sapiens, UniProt P03372).
T2 sequence (P03372 whole entry): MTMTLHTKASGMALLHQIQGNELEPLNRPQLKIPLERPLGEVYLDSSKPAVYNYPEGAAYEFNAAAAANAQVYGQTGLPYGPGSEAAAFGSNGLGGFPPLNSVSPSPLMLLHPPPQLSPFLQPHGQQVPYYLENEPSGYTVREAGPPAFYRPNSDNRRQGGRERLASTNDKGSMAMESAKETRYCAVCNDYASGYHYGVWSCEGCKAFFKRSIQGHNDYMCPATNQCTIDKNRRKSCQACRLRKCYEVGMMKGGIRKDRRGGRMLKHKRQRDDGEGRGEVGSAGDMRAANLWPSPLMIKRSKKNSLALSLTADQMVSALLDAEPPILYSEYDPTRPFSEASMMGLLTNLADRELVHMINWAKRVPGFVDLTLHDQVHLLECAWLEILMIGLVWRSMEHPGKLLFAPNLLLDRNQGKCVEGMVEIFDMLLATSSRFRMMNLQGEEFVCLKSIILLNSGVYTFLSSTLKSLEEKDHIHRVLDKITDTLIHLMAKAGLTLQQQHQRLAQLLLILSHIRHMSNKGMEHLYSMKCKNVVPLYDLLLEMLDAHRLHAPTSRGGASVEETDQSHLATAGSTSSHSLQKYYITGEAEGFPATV
The settings on record: sf9.

A further data set concerns the target Melanocortin receptor 5 (Homo sapiens, UniProt P33032). Format: cell membranes, HEK293, Membrane. The settings on record: for Ki: read-out: Ki.
Another data set has as its target T3, Neutrophil elastase (Homo sapiens, UniProt P08246).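 Further: inhibition of neutrophil elastase enzyme activity, measured with a p-nitroanilide-linked peptide substrate.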
T3 sequence (P08246 whole entry): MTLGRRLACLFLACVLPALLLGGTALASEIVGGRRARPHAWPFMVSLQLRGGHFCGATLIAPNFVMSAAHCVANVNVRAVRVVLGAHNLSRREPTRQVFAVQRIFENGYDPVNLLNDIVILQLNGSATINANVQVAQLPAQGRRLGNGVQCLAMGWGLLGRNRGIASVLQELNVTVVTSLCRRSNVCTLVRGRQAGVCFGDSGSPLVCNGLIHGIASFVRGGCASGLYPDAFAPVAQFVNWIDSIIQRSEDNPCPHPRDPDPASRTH
Format: tissue-based.

The target in data set [2] is 5-hydroxytryptamine receptor 6 (Homo sapiens, UniProt P50406). Type of data set: cell membranes, HeLa, Membrane. The settings on record: for Ki: read-out: Ki.
Sequence of 5-hydroxytryptamine receptor 6 (P50406 whole entry): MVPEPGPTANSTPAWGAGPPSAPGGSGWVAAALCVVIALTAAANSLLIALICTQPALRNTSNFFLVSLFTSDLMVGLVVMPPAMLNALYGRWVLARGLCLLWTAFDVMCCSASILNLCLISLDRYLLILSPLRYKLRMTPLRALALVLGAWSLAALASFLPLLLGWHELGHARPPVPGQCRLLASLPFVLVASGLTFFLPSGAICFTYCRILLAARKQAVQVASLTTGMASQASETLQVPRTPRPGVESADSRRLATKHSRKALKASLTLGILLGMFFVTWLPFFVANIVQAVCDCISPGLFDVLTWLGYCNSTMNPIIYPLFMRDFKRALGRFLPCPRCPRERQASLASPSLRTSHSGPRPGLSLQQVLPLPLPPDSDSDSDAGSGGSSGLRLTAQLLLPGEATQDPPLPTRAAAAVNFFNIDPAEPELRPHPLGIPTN
Further: in other assays of this panel Not Active means under 50% inhibition at 10 µM.

Sequence of Melanocortin receptor 5 (P33032 whole entry): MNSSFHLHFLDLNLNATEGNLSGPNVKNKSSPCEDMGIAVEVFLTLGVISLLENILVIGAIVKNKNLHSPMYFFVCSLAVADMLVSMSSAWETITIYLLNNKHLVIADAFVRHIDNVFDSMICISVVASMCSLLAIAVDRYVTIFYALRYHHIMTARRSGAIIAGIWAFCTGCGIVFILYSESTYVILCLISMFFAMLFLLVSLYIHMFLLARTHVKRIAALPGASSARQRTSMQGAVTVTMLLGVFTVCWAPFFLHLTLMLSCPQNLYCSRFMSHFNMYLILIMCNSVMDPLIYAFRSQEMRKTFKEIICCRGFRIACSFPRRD

As to `CC(C)(C)NC(=O)[C@@H]1C[C@@H]2CCCC[C@@H]2CN1C[C@@H](O)[C@H](Cc1ccccc1)NC(=O)[C@H](CC(N)=O)NC(=O)c1ccc2ccccc2n1`, the IC50 result (against Glycine receptor; on Cytochrome P450 2C9; in data set [1]; against Estrogen receptor; against Melanocortin receptor 5 (hek293); on Neutrophil elastase) was “Not Active” each time. Moreover, the IC50 result in data set [2] (hela) is “Not Active”. Also, the inhibitory constant (Ki) result at Cytochrome P450 2C9 is “Not Active”.

As for `CC(=O)[C@@]1(O)CC[C@H]2[C@@H]3C[C@H](C)C4=CC(=O)CC[C@]4(C)[C@H]3CC[C@@]21C`, the IC50 result (on Glycine receptor; on Cytochrome P450 2C9; in data set [1]; at Estrogen receptor; against Melanocortin receptor 5 (hek293); on Neutrophil elastase) was “Not Active” throughout. The half-inhibitory concentration (IC50) entry in data set [2] (hela) is on record as “Not Active”. Further, the Ki entry at Cytochrome P450 2C9 was “Not Active”.

Consider `N[C@@H](Cc1ccc(N(CCCl)CCCl)cc1)C(=O)O`, for which the IC50 result (against Glycine receptor; against Cytochrome P450 2C9; in data set [1]; against Melanocortin receptor 5 (hek293); against Neutrophil elastase; in data set [2] (hela)) was “Not Active” in each case. Also, on Cytochrome P450 2C9, the inhibitory constant (Ki) entry is listed as “Not Active”.

For the compound `CCCCc1oc2ccccc2c1C(=O)c1cc(I)c(OCCN(CC)CC)c(I)c1` [AMIODARONE], the 50% inhibitory concentration (IC50) entry at Glycine receptor was “Not Active”; in data set [1], “Not Active”; on Estrogen receptor, “Not Active”; at Melanocortin receptor 5 (read-out: IC50), 9.5 µM; against Neutrophil elastase, “Not Active”; in data set [2] (read-out: IC50), 19.4 µM. For the same compound, the Ki was found to be 8.91 µM at Melanocortin receptor 5 and 9.03 µM in data set [2].

Take `OCCN(CCO)c1nc(N2CCCCC2)c2nc(N(CCO)CCO)nc(N3CCCCC3)c2n1` [DIPYRIDAMOLE]: the IC50 entry (on Glycine receptor; in data set [1]; against Estrogen receptor; on Melanocortin receptor 5 (hek293); against Neutrophil elastase; in data set [2] (hela)) was “Not Active” in each case.

`Cc1oncc1C(=O)Nc1ccc(C(F)(F)F)cc1` [LEFLUNOMIDE]: the concentration for half-maximal inhibition (IC50) result (against Glycine receptor; against Cytochrome P450 2C9; in data set [1]; against Estrogen receptor; at Melanocortin receptor 5 (hek293); at Neutrophil elastase) was “Not Active” each time. Besides, in data set [2] (hela), the IC50 result is given as “Not Active”. Besides, on Cytochrome P450 2C9, the Ki entry was “Not Active”.

Take `c1ccc([C@H]2CN3CCSC3=N2)cc1` [LEVAMISOLE]: the IC50 result (on Glycine receptor; against Cytochrome P450 2C9; in data set [1]; against Estrogen receptor; at Melanocortin receptor 5 (hek293); against Neutrophil elastase) was “Not Active” throughout. For the same compound, the IC50 result in data set [2] (hela) is “Not Active”. The Ki entry at Cytochrome P450 2C9 is recorded as “Not Active”.

For the compound `N[C@@H](Cc1ccc(O)c(O)c1)C(=O)O` [LEVODOPA], the IC50 result (against Glycine receptor; against Cytochrome P450 2C9; in data set [1]; against Melanocortin receptor 5 (hek293); against Neutrophil elastase; in data set [2] (hela)) was “Not Active” each time. The inhibitory constant (Ki) result on Cytochrome P450 2C9 is reported as “Not Active”.

In the case of `N[C@@H](Cc1cc(I)c(Oc2ccc(O)c(I)c2)c(I)c1)C(=O)O` [LIOTHYRONINE], the IC50 entry (against Glycine receptor; in data set [1]; on Estrogen receptor; at Melanocortin receptor 5 (hek293); against Neutrophil elastase; in data set [2] (hela)) was “Not Active” throughout.

In the case of `O=NN(CCCl)C(=O)NC1CCCCC1` [LOMUSTINE], the 50% inhibitory concentration (IC50) entry (against Glycine receptor; on Cytochrome P450 2C9; in data set [1]; against Melanocortin receptor 5 (hek293); against Neutrophil elastase; in data set [2] (hela)) was “Not Active” in each case. In addition, the inhibition constant (Ki) result at Cytochrome P450 2C9 is listed as “Not Active”.

In the case of `CCOC(=O)N1CCC(=C2c3ccc(Cl)cc3CCc3cccnc32)CC1` [LORATADINE], the half-inhibitory concentration (IC50) result (against Glycine receptor; in data set [1]; against Estrogen receptor; against Melanocortin receptor 5 (hek293); at Neutrophil elastase; in data set [2] (hela)) was “Not Active” in each case.

As to `Cn1ccnc1S` [METHIMAZOLE], the IC50 entry (against Glycine receptor; on Cytochrome P450 2C9; in data set [1]; at Estrogen receptor; at Melanocortin receptor 5 (hek293); against Neutrophil elastase) was “Not Active” throughout. For the same compound, in data set [2] (hela), the half-maximal inhibitory concentration (IC50) entry is reported as “Not Active”. Besides, the inhibition constant (Ki) result on Cytochrome P450 2C9 was “Not Active”.

`CC[C@@H](CO)NC(=O)[C@@H]1C=C2c3cccc4[nH]cc(c34)C[C@H]2N(C)C1` [METHYLERGONOVINE]: the IC50 result (against Glycine receptor; against Cytochrome P450 2C9; in data set [1]; at Estrogen receptor; on Melanocortin receptor 5 (hek293); against Neutrophil elastase) was “Not Active” throughout. Besides, the IC50 in data set [2] (read-out: IC50) came out at 0.00254 µM. The inhibition constant (Ki) entry at Cytochrome P450 2C9 was “Not Active”; in data set [2], 0.00118 µM.

For the compound `COc1nc(C)nc(Cl)c1NC1=NCCN1` [MOXONIDINE], the IC50 result (at Glycine receptor; at Cytochrome P450 2C9; in data set [1]; against Estrogen receptor; at Melanocortin receptor 5 (hek293); at Neutrophil elastase) was “Not Active” in each case. For the same compound, the IC50 result in data set [2] (hela) is given as “Not Active”. The inhibitory constant (Ki) result on Cytochrome P450 2C9 is given as “Not Active”.

For `CO[C@H]1/C=C/O[C@@]2(C)Oc3c(C)c(O)c4c(O)c(c(/C=N/N5CCN(C)CC5)c(O)c4c3C2=O)NC(=O)/C(C)=C\C=C\[C@H](C)[C@H](O)[C@@H](C)[C@@H](O)[C@@H](C)[C@H](OC(C)=O)[C@@H]1C` [RIFAMPIN], the concentration for half-maximal inhibition (IC50) result (against Glycine receptor; in data set [1]; against Melanocortin receptor 5 (hek293); against Neutrophil elastase; in data set [2] (hela)) was “Not Active” each time.

Consider `Nc1nc2ccc(OC(F)(F)F)cc2s1` [RILUZOLE], for which the half-maximal inhibitory concentration (IC50) result (on Glycine receptor; in data set [1]; against Estrogen receptor; at Melanocortin receptor 5 (hek293); against Neutrophil elastase; in data set [2] (hela)) was “Not Active” each time.

`CC/C(=C(\c1ccccc1)c1ccc(OCCN(C)C)cc1)c1ccccc1` [TAMOXIFEN]: the 50% inhibitory concentration (IC50) entry is “Not Active” against Glycine receptor; “Not Active” in data set [1]; 26.5 µM at Melanocortin receptor 5 (read-out: IC50); “Not Active” against Neutrophil elastase; 2.68 µM in data set [2] (read-out: IC50). Besides, the inhibition constant (Ki) came to 24.9 µM on Melanocortin receptor 5 and 1.24 µM in data set [2].

`NC[C@H]1CC[C@H](C(=O)O)CC1` [TRANEXAMIC ACID]: the IC50 entry (against Glycine receptor; in data set [1]; against Estrogen receptor; against Melanocortin receptor 5 (hek293); against Neutrophil elastase; in data set [2] (hela)) was “Not Active” throughout.

Take `CC1(C)O[C@@H]2C[C@H]3[C@@H]4CCC5=CC(=O)C=C[C@]5(C)[C@@]4(F)[C@@H](O)C[C@]3(C)[C@]2(C(=O)CO)O1` [TRIAMCINOLONE ACETONIDE]: the IC50 result (against Glycine receptor; against Cytochrome P450 2C9; in data set [1]; against Melanocortin receptor 5 (hek293); on Neutrophil elastase; in data set [2] (hela)) was “Not Active” in each case. For the same compound, the Ki entry at Cytochrome P450 2C9 is listed as “Not Active”.

`NS(=O)(=O)c1cc2c(cc1Cl)NC(C(Cl)Cl)NS2(=O)=O` (stereo not drawn) [TRICHLORMETHIAZIDE]: the IC50 entry (at Glycine receptor; against Cytochrome P450 2C9; in data set [1]; against Melanocortin receptor 5 (hek293); at Neutrophil elastase; in data set [2] (hela)) was “Not Active” throughout. Besides, at Cytochrome P450 2C9, the inhibitory constant (Ki) entry is listed as “Not Active”.

Consider `Cc1c(C)c2c(c(C)c1O)CCC(C)(COc1ccc(CC3SC(=O)NC3=O)cc1)O2` (stereo not drawn) [TROGLITAZONE], for which the IC50 entry (against Glycine receptor; in data set [1]; against Estrogen receptor; at Melanocortin receptor 5 (hek293); at Neutrophil elastase; in data set [2] (hela)) was “Not Active” throughout.
